The values below come from patent publication US6709676B2, “Extended release oral dosage composition” (Schering Corporation, priority 1999, dated 2004).

This experiment has as its system allergic bronchospasm and cough. Kind of experiment: in vivo studies of allergic bronchospasm and cough.

For `Clc1ccc2c(c1)CCc1cccnc1C2=C1CCNCC1` [desloratadine, Desloratadine], the “effect on allergic bronchospasm and cough” value is “inhibitory effect”.
